Legend:
[1] = tested on: F21D (DNA, G4) GGGTTAGGGTTAGGGTTAGGG; assay: FRET melting; conditions: 5 mM K+, 95 mM Li+, 10 mM lithium cacodylate, pH 7.2, 0.2 µM F21D
[2] = tested on: Tel22 (DNA, G4) AGGGTTAGGGTTAGGGTTAGGG; assay: UV-Vis titration, Direct Fit; conditions: 5 mM K+, 95 mM Li+; 10 mM lithium cacodylate, pH 7.2; equivalent independent sites assumed; per site

Compound	ΔTm ([1]; 7.5 eq. compound)	Ka [2]	ΔTm ([1]; 20 eq. compound, weak stabilization up to 8 eq.)
NCCCNCCCCNCCCNC(=O)c1ccc(-c2c3nc(c(-c4ccc(C(=O)NCCCNCCCCNCCCN)cc4)c4ccc([nH]4)c(-c4ccc(C(=O)NCCCNCCCCNCCCN)cc4)c4nc(c(-c5ccc(C(=O)NCCCNCCCCNCCCN)cc5)c5ccc2[nH]5)C=C4)C=C3)cc1	36 ± 2 °C	(4.7 ± 0.7) × 10^6 M^-1	
NCCCNCCCCNCCCNC(=O)c1ccc(-c2c3nc(c(-c4ccc(C(=O)NCCCNCCCCNCCCN)cc4)c4ccc([n-]4)c(-c4ccc(C(=O)NCCCNCCCCNCCCN)cc4)c4nc(c(-c5ccc(C(=O)NCCCNCCCCNCCCN)cc5)c5ccc2[n-]5)C=C4)C=C3)cc1.O.[Zn+2]		(1.4 ± 0.7) × 10^7 M^-1	33 ± 2 °C

Source: paper PMC6274827 (2018)
